Values of other authors in paper PMC10817174, “Integrated drug response prediction models pinpoint repurposed drugs with effectiveness against rhabdomyosarcoma” (PLOS ONE, 2024).

What was measured:
[1] = test system: GDSC-RD cell line; conditions: Table S2, published drug response ref Iorio et al. (2016); cited from earlier work
[2] = test system: GDSC-SJCRH30 cell line; conditions: Table S2, published drug response ref Iorio et al. (2016); cited from earlier work

Row | SMILES | Iorio_RD [1] | Iorio_SJCRH30 [2]
1 | O=c1[nH]cc(F)c(=O)[nH]1 [5-Fluorouracil] | R | R
2 | C=CCNC1=C2C[C@@H](C)C[C@H](OC)[C@H](O)[C@@H](C)/C=C(\C)[C@H](OC(N)=O)[C@@H](OC)/C=C\C=C(/C)C(=O)NC(=CC1=O)C2=O [17-AAG] | – | R
3 | Cc1ccc(F)c(NC(=O)Nc2ccc(-c3cccc4[nH]nc(N)c34)cc2)c1 [ABT-869] | R | R
4 | C[C@]1(c2nc3c(C(N)=O)cccc3[nH]2)CCCN1 [ABT-888] | – | R
5 | CC(C)(C)c1cc(NC(=O)Nc2ccc(-c3cn4c(n3)sc3cc(OCCN5CCOCC5)ccc34)cc2)no1 [AC220] | R | R
6 | CNCc1ccc(-c2[nH]c3cc(F)cc4c3c2CCNC4=O)cc1 [AG-014699] | R | R
7 | NC(=O)c1ncn([C@@H]2O[C@H](CO)[C@@H](O)[C@H]2O)c1N [AICAR] | – | R
8 | O=c1[nH]c2ccccc2n1C1CCN(Cc2ccc(-c3nc4cc5[nH]cnc5cc4nc3-c3ccccc3)cc2)CC1 [AKT-inhibitor-VIII] | R | R
9 | CC1(C)CNc2cc(NC(=O)c3cccnc3NCc3ccncc3)ccc21 [AMG-706] | – | R
10 | Cc1ccc(C(=O)Nc2ccc(CN3CCN(C)CC3)c(C(F)(F)F)c2)cc1C#Cc1cnc2cccnn12 [AP-24534] | R | R
11 | CC(C)[C@H](C(=O)Nc1ccc(C(=O)NO)cc1)c1ccccc1 [AR-42] | R | R
12 | N#CC(c1ccnc(NCCc2cccnc2)n1)c1nc2ccccc2s1 (centres unmarked) [AS601245] | R | R
13 | O=C1NC(=O)/C(=C\c2ccc3nccnc3c2)S1 [AS605240] | R | R
14 | O=C(NC1CCNCC1)c1[nH]ncc1NC(=O)c1c(Cl)cccc1Cl [AT-7519] | R | R
15 | CC1=C(/C=C/C(C)=C/C=C/C(C)=C/C(=O)O)C(C)(C)CCC1 [ATRA] | – | R
16 | CCNC(=O)c1noc(-c2cc(C(C)C)c(O)cc2O)c1-c1ccc(CN2CCOCC2)cc1 [AUY922] | R | R
17 | COc1cc2nccc(Oc3ccc(NC(=O)Nc4cc(C)on4)c(Cl)c3)c2cc1OC [AV-951, tivozanib] | R | R
18 | NC(=O)Nc1cc(-c2cccc(F)c2)sc1C(=O)N[C@H]1CCCNC1 [AZD7762] | – | S
19 | COc1ccc(-c2ccc3c(N4CCOC[C@@H]4C)nc(N4CCOC[C@@H]4C)nc3n2)cc1CO [AZD8055] | – | R
20 | CNC(=O)c1ccccc1Sc1ccc2c(/C=C/c3ccccn3)n[nH]c2c1 [Axitinib] | – | R
21 | COc1ccc(-c2cc3nccn3c(Nc3ncccc3C(N)=O)n2)cc1OC [BAY-61-3606] | R | R
22 | Cc1ccc(-n2nc(C(C)(C)C)cc2NC(=O)Nc2ccc(OCCN3CCOCC3)c3ccccc23)cc1 [BIRB-0796] | – | R
23 | CN(C)Cc1cccc(N/C(=C2\C(=O)Nc3cc(C(=O)N(C)C)ccc32)c2ccccc2)c1 [BIX02189] | R | R

Row | SMILES | Iorio_RD [1] | Iorio_SJCRH30 [2]
24 | Cn1ncnc1[C@H]1c2n[nH]c(=O)c3cc(F)cc(c23)N[C@@H]1c1ccc(F)cc1 [BMN-673] | R | S
25 | Cc1ccc2nc(NCCN)c3ncc(C)n3c2c1 [BMS-345541] | R | R
26 | C[C@@]1(C(=O)Nc2ccc(F)nc2)CCCN1c1nc(Nc2cc(C3CC3)n[nH]2)c2cccn2n1 [BMS-754807] | S | S
27 | O=C(NCCCNc1nc(Nc2cccc(NC(=O)N3CCCC3)c2)ncc1I)c1cccs1 [BX-795] | – | R
28 | O=C(Nc1cccc(Nc2ncc(Br)c(NCCc3cnc[nH]3)n2)c1)N1CCCC1 [BX-912] | R | R
29 | C=C(c1ccc(C(=O)O)cc1)c1cc2c(cc1C)C(C)(C)CCC2(C)C [Bexarotene] | R | R
30 | COc1cc(Nc2c(C#N)cnc3cc(OCCCN4CCN(C)CC4)c(OC)cc23)c(Cl)cc1Cl [Bosutinib] | – | R
31 | CCC/C=C/C=C/C(=O)O[C@H]1/C(=C/C(=O)OC)C[C@H]2C[C@H]([C@@H](C)O)OC(=O)C[C@H](O)C[C@@H]3C[C@H](OC(C)=O)C(C)(C)[C@](O)(C[C@@H]4C/C(=C/C(=O)OC)C[C@H](/C=C/C(C)(C)[C@]1(O)O2)O4)O3 [Bryostatin-1] | R | R
32 | CC[C@H](Nc1ncnc2[nH]cnc12)c1nc2cccc(F)c2c(=O)n1-c1ccccc1 [CAL-101] | R | R
33 | CC(C)(C)OC(=O)Nc1ccc(-c2cc(C(=O)NCCCCCCC(=O)NO)no2)cc1 [CAY10603] | R | R
34 | CCc1cc(-c2n[nH]c(C)c2-c2ccc3c(c2)OCCO3)c(O)cc1O [CCT018159] | R | R
35 | C[C@]12O[C@H](C[C@]1(O)CO)n1c3ccccc3c3c4c(c5c6ccccc6n2c5c31)CNC4=O [CEP-701] | – | R
36 | O=C(NOCC1CC1)c1ccc(F)c(F)c1Nc1ccc(I)cc1Cl [CI-1040] | – | R
37 | COc1cc2ncnc(-n3nc(-c4ccccn4)nc3N)c2cc1OC [CP466722] | R | R
38 | COCC(=O)NC/C=C/c1ccc2ncnc(Nc3ccc(Oc4ccc(C)nc4)c(C)c3)c2c1 [CP724714] | R | R
39 | C#Cc1cccc(Nc2ncnc3cc(OC)c(OCCCCCCC(=O)NO)cc23)c1 [CUDC-101] | R | R
40 | CC[C@@]1(O)C(=O)OCc2c1cc1n(c2=O)Cc2cc3ccccc3nc2-1 [Camptothecin] | – | R
41 | N.N.[Cl][Pt][Cl] [Cisplatin] | – | R
42 | Nc1ccn([C@@H]2O[C@H](CO)[C@@H](O)[C@@H]2O)c(=O)n1 [Cytarabine] | – | S
43 | CC(=O)O[C@@]12CO[C@@H]1C[C@H](O)[C@@]1(C)C(=O)[C@H](O)C3=C(C)[C@@H](OC(=O)[C@H](O)[C@@H](NC(=O)OC(C)(C)C)c4ccccc4)C[C@@](O)([C@@H](OC(=O)c4ccccc4)[C@H]21)C3(C)C [Docetaxel] | – | R
44 | CN(NC(=O)CC(=O)NN(C)C(=S)c1ccccc1)C(=S)c1ccccc1 [Elesclomol] | – | R
45 | Cn1cc(/C=C2\C(=O)Nc3cccnc32)c2ccccc21 [GW-441756] | – | S
46 | COc1cc2ncnc(Nc3ccc(F)c(Cl)c3)c2cc1OCCCN1CCOCC1 [Gefitinib] | – | R

Row | SMILES | Iorio_RD [1] | Iorio_SJCRH30 [2]
47 | CNC(=O)c1ccc(Nc2cc(Nc3ccccc3S(=O)(=O)C(C)C)c3cc[nH]c3n2)nc1 [HG-5-113-01] | – | R
48 | CCOc1nc(NC(=O)Cc2cc(OC)ccc2OC)cc(N)c1C#N [JNK-Inhibitor-VIII] | – | R
49 | O=c1cc(-c2cccc3c2Sc2ccccc2S3)oc(N2CCOCC2)c1 [KU-55933] | – | R
50 | Nc1cccc2c1CN(C1CCC(=O)NC1=O)C2=O (centres unmarked) [Lenalidomide] | – | R
51 | NC1(c2ccc(-c3nc4ccn5c(=O)[nH]nc5c4cc3-c3ccccc3)cc2)CCC1 [MK-2206] | – | R
52 | CN(Cc1cnc2nc(N)nc(N)c2n1)c1ccc(C(=O)N[C@@H](CCC(=O)O)C(=O)O)cc1 [Methotrexate] | – | R
53 | O=c1cc(N2CCOCC2)oc2c(-c3cccc4c3sc3ccccc34)cccc12 [NU-7441] | – | R
54 | Cn1c(=O)n(-c2ccc(C(C)(C)C#N)cc2)c2c3cc(-c4cnc5ccccc5c4)ccc3ncc21 [NVP-BEZ235] | – | R
55 | Cc1cn(-c2cc(NC(=O)c3ccc(C)c(Nc4nccc(-c5cccnc5)n4)c3)cc(C(F)(F)F)c2)cn1 [Nilotinib] | – | R
56 | COc1ccc(C2=N[C@@H](c3ccc(Cl)cc3)[C@@H](c3ccc(Cl)cc3)N2C(=O)N2CCNC(=O)C2)c(OC(C)C)c1 [Nutlin-3a] | – | R
57 | CCN(CC)CCCCNc1ncc2cc(-c3cc(OC)cc(OC)c3)c(NC(=O)NC(C)(C)C)nc2n1 [PD-173074] | – | R
58 | O=C(NOC[C@H](O)CO)c1ccc(F)c(F)c1Nc1ccc(I)cc1F [PD-0325901] | – | R
59 | CC(=O)c1c(C)c2cnc(Nc3ccc(N4CCNCC4)cn3)nc2n(C2CCCC2)c1=O [PD-0332991] | – | R
60 | O=C1NC(=NCc2cccs2)S/C1=C\c1ccc2ncccc2c1 [RO-3306] | – | R
61 | Cn1cc(C2=C(c3ccc(Cl)cc3Cl)C(=O)NC2=O)c2ccccc21 [SB-216763] | – | R
62 | CC(=O)O[C@@H]1[C@@H](OC(C)=O)[C@@H](O)[C@H](Oc2c(-c3ccc(O)cc3)oc3cc(O)cc(O)c3c2=O)O[C@H]1C [SL-0101-1] | – | R
63 | CO[C@H]1C[C@@H]2CC[C@@H](C)[C@@](O)(O2)C(=O)C(=O)N2CCCC[C@H]2C(=O)O[C@H]([C@H](C)C[C@@H]2CC[C@@H](OC(=O)C(C)(CO)CO)[C@H](OC)C2)CC(=O)[C@H](C)/C=C(\C)[C@@H](O)[C@@H](OC)C(=O)[C@H](C)C[C@H](C)/C=C/C=C/C=C/1C [Temsirolimus] | – | R
64 | NC(=O)c1ccc(N(C(N)=O)c2c(F)cccc2F)nc1-c1ccc(F)cc1F [VX-702] | – | R
65 | CC[C@]1(O)C[C@@H]2CN(CCc3c([nH]c4ccccc34)[C@@](C(=O)OC)(c3cc4c(cc3OC)N(C)[C@H]3[C@@](O)(C(=O)OC)[C@H](OC(C)=O)[C@]5(CC)C=CCN6CC[C@]43[C@@H]65)C2)C1 [Vinblastine] | – | R
66 | CS(=O)(=O)c1ccc(C(=O)Nc2ccc(Cl)c(-c3ccccn3)c2)c(Cl)c1 [Vismodegib] | – | R
67 | CCOc1cc(N2CCC(O)CC2)ccc1Nc1ncc2c(n1)N(C)c1ccccc1C(=O)N2C [XMD8-92] | – | R
68 | CN(C)C/C=C/C(=O)Nc1ccc(C(=O)Nc2cccc(Nc3nccc(-c4cccnc4)n3)c2)cc1 [ZG-10] | – | R
69 | COc1cc2c(Nc3ccc(NC(=O)c4ccccc4)cc3)ncnc2cc1OCCCN1CCOCC1 [ZM-447439] | – | R
